Measured values published in publication PMC3743763, “Conformational Changes in the Lower Palm Domain of ASIC1a Contribute to Desensitization and RFamide Modulation” (PLoS ONE, 2013).
Substitutions are numbered along the chain they refer to. Residues, ends and D or L forms follow the SMILES beside them. No end group written: not given here.

Assays:
wildtype human ASIC1a = target: T1, wildtype human ASIC1a (Homo sapiens, UniProt P78348); assay: FRRFa modulation of acid-evoked currents, two-electrode voltage clamp in Xenopus oocytes; assay type: cell-based
T1 construct: expressed in transfected cells; host or cells: Xenopus laevis oocytes (nuclear injection of pMT3 expression plasmid)
T1 sequence (P78348 1-528): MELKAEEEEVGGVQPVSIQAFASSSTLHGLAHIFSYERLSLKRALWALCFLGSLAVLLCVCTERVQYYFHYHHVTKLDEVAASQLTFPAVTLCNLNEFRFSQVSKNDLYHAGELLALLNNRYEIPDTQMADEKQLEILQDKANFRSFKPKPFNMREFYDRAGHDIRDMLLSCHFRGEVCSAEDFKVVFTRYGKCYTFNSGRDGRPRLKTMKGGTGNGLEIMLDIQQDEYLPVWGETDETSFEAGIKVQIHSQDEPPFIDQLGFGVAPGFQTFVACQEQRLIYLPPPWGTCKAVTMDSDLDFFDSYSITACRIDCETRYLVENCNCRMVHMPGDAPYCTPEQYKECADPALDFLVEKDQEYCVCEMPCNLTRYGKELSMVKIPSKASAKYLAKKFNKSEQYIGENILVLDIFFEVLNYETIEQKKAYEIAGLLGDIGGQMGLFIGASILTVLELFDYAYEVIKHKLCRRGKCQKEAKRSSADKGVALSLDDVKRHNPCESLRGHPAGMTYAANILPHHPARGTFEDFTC
Experimental: (§1) The Stratagene QuikChange® site-directed mutagenesis kit (Cedar Creek, TX) was used to introduce point mutations into the human ASIC1a cDNA (GENBANK accession number NM_001095) within the pMT3 expression vector. Mutations were confirmed by DNA sequencing at the Plant-Microbe Genomics Facility at The Ohio State University and high quality plasmid DNA was prepared for injection using Qiagen (Valencia, CA) Midi prep kits. Female Xenopus laevis were purchased from Xenopus I (Dexter, MI) and Xenopus oocytes were isolated using standard procedures. This work was implemented in accordance with the Guide for the Care and Use of Laboratory Animals of the National Institutes of Health and approved by the Institutional Animal Care and Use Committee of The Ohio State University (protocol # 2009A0161-R1). The oocyte removal surgery was performed under tricaine methanesulfonate (MS222) anesthesia and all efforts were made to minimize suffering. Ovarian lobes were removed and digested for 1.5-2 hours at room temperature with 1.2 mg/ml collagenase in Modified Barth’s solution lacking calcium (24 mM NaHCO3, 88 mM NaCl, 15 mM HEPES, 1 mM KCl, 0.8 mM MgSO4, 125 units/liter penicillin/streptomycin) to separate individual oocytes and remove follicular membranes. Healthy stage IV and V oocytes were selected and maintained in Modified Barth’s solution containing calcium (0.4 mM CaCl2 and 0. 3 mM Ca(NO3)2). The nuclei of isolated oocytes were injected with ~5 ng of a 100 ng/µl stock of wildtype or mutant ASIC1a expression plasmids using a PV820 pneumatic picopump (World Precision Instruments, Sarasota, FL). Oocytes were incubated at 18 °C for 18-96 hours before experiments were performed. […]
(§2) In order to obtain the pH dependence of activation, basal pH was maintained at pH 7.4. […] Peak current amplitude was measured for each test pH and normalized to the average peak amplitude of flanking pH 5.0 currents to minimize the impact of potential tachyphylaxis. […] As before, maximal currents were measured before and after test conditioning pH to minimize the effect of possible tachyphylaxis of proton-gated current. […]

human ASIC1a L280C [1] = target: T2, human ASIC1a L280C (Homo sapiens, UniProt P78348, L280C); assay: FRRFa / FRRF (no amide) modulation of acid-evoked currents, two-electrode voltage clamp in Xenopus oocytes; assay type: cell-based
T2 construct: expressed in transfected cells; host or cells: Xenopus laevis oocytes (nuclear injection of pMT3 expression plasmid)
T2 sequence (P78348 1-528 L280C): T1 sequence (P78348 1-528) with L280C
Experimental: as §1, §2

wildtype ASIC1a = assay: MTSET exposure, two-electrode voltage clamp in Xenopus oocytes; assay type: cell-based, human
Experimental: (§3) The Stratagene QuikChange® site-directed mutagenesis kit (Cedar Creek, TX) was used to introduce point mutations into the human ASIC1a cDNA (GENBANK accession number NM_001095) within the pMT3 expression vector. Mutations were confirmed by DNA sequencing at the Plant-Microbe Genomics Facility at The Ohio State University and high quality plasmid DNA was prepared for injection using Qiagen (Valencia, CA) Midi prep kits. Female Xenopus laevis were purchased from Xenopus I (Dexter, MI) and Xenopus oocytes were isolated using standard procedures. This work was implemented in accordance with the Guide for the Care and Use of Laboratory Animals of the National Institutes of Health and approved by the Institutional Animal Care and Use Committee of The Ohio State University (protocol # 2009A0161-R1). The oocyte removal surgery was performed under tricaine methanesulfonate (MS222) anesthesia and all efforts were made to minimize suffering. Ovarian lobes were removed and digested for 1.5-2 hours at room temperature with 1.2 mg/ml collagenase in Modified Barth’s solution lacking calcium (24 mM NaHCO3, 88 mM NaCl, 15 mM HEPES, 1 mM KCl, 0.8 mM MgSO4, 125 units/liter penicillin/streptomycin) to separate individual oocytes and remove follicular membranes. Healthy stage IV and V oocytes were selected and maintained in Modified Barth’s solution containing calcium (0.4 mM CaCl2 and 0. 3 mM Ca(NO3)2). The nuclei of isolated oocytes were injected with ~5 ng of a 100 ng/µl stock of wildtype or mutant ASIC1a expression plasmids using a PV820 pneumatic picopump (World Precision Instruments, Sarasota, FL). Oocytes were incubated at 18 °C for 18-96 hours before experiments were performed.
The two-electrode voltage clamp technique was used to measure whole cell currents from Xenopus oocytes heterologously expressing ASIC1a channels as described. Electrodes were pulled using a Sutter P-97 micropipette puller (Sutter Instrument Co., Novato, CT) and filled with 3 M KCl (pipette resistance of 0.5–2 MΩ). Oocyte recordings were done in a modified RC-Z3 250 µl oocyte recording chamber (Warner Instruments, Hamden, CT). Data were acquired using an Oocyte Clamp OC-725 Amplifier (Warner Instruments, Hamden, CT) and a Powerlab 4SP digitizer with CHART5 software (ADI Instruments, Colorado Springs, CO). […]
as §2

human ASIC1a L280C [2] = target: T2, human ASIC1a L280C; assay: MTSET modification of the cysteine mutant (residual current read-out), closed vs desensitized state; assay type: cell-based
Experimental: as §3
The two-electrode voltage clamp technique was used to measure whole cell currents from Xenopus oocytes heterologously expressing ASIC1a channels as described. Electrodes were pulled using a Sutter P-97 micropipette puller (Sutter Instrument Co., Novato, CT) and filled with 3 M KCl (pipette resistance of 0.5–2 MΩ). Oocyte recordings were done in a modified RC-Z3 250 µl oocyte recording chamber (Warner Instruments, Hamden, CT). Data were acquired using an Oocyte Clamp OC-725 Amplifier (Warner Instruments, Hamden, CT) and a Powerlab 4SP digitizer with CHART5 software (ADI Instruments, Colorado Springs, CO). Except where noted, the extracellular solution contained (in mM): 116 NaCl, 2 KCl, 5 HEPES, 5 MES, 2 CaCl2, 1 MgCl2, with pH adjusted using 1N NaOH. The solution exchange rate in the recording chamber was ~1 ml/s. The holding potential was -60 mV unless otherwise noted. [2-(Trimethylammonium)ethyl] Methanethiosulfonate Bromide (MTSET) was purchased from Toronto Research Chemicals, Inc. (Ontario, Canada). FRRFamide peptide (FRRFa) and FRRF (no amide) were synthesized from EZBiolab, Inc. (Westfield, IN).
Oocytes were maintained at a basal pH of 7.4 and maximal currents were established with application of pH 5.0. Currents were allowed to decay for at least 60 s. The control residual current was determined by normalizing the current remaining at 60 s to the peak amplitude (Iresidual/Itransient). After recovery, 300 µM MTSET was applied at pH 7.4 for the indicated duration and excess MTSET was washed away with at least 10 mL of pH 7.4 solution. The pH-dependence of activation and steady-state desensitization were measured as described above. During experiments using MTSET, the effect on residual current decreased slightly over time. […]

human ASIC1a L280C [3] = target: T2, human ASIC1a L280C; assay: Peptide-MTSET competition (MTSET modification in presence of peptide, residual current read-out); assay type: cell-based
Experimental: The Stratagene QuikChange® site-directed mutagenesis kit (Cedar Creek, TX) was used to introduce point mutations into the human ASIC1a cDNA (GENBANK accession number NM_001095) within the pMT3 expression vector. Mutations were confirmed by DNA sequencing at the Plant-Microbe Genomics Facility at The Ohio State University and high quality plasmid DNA was prepared for injection using Qiagen (Valencia, CA) Midi prep kits. Female Xenopus laevis were purchased from Xenopus I (Dexter, MI) and Xenopus oocytes were isolated using standard procedures. This work was implemented in accordance with the Guide for the Care and Use of Laboratory Animals of the National Institutes of Health and approved by the Institutional Animal Care and Use Committee of The Ohio State University (protocol # 2009A0161-R1). The oocyte removal surgery was performed under tricaine methanesulfonate (MS222) anesthesia and all efforts were made to minimize suffering. […]
Vehicle or 100 µM peptide was applied for 1 minute at pH 7.4. […] Before residual current was measured, oocytes were washed with at least 50 mL of pH 7.4 over 10 minutes in order to remove peptides. […]

[4] = target: T3, human acid-sensing ion channel 1a (hASIC1a), wild type (human) (UniProt P78348)
T3 sequence: T1 sequence (P78348 1-528)

[5] = target: T4, human ASIC1a L280C (human) (UniProt P78348)
T4 sequence: T1 sequence (P78348 1-528) with L280C

## N=C(N)NCCC[C@H](NC(=O)[C@H](CCCNC(=N)N)NC(=O)[C@@H](N)Cc1ccccc1)C(=O)N[C@@H](Cc1ccccc1)C(N)=O [FRRFa, FRRFamide] (H-FRRF-NH2)
Wildtype human ASIC1a; 100 µM FRRFa vs control, mean ± SEM, n = 14, SEM
  increase in τinact with FRRFamide: 45 ± 6%
Wildtype human ASIC1a; residual current, n = 5, p = 0.69 paired t-test (not significant)
  difference in response between 100µM and 300µM FRRFa: 10.42% ± 11.25
Wildtype human ASIC1a; responses normalized to 100 µM FRRFa, mean ± SEM, n = 6-8, SEM, read-out: EC50 of FRRFa modulation (effect on residual current)
  EC50: 20 ± 4 µM
Human ASIC1a L280C [1]; 100 µM FRRFa vs control, mean ± SEM, n = 17, p = 6x10^-5 vs wildtype, SEM
  increase in τinact with FRRFamide: 131 ± 16%
Human ASIC1a L280C [1]; responses normalized to 100 µM FRRFa, mean ± SEM, n = 6-8, p = 0.34 vs wildtype, SEM, read-out: EC50 of FRRFa modulation (effect on residual current)
  EC50: 14 ± 4 µM

## C[N+](C)(C)CCSS(C)(=O)=O.[Br-] [MTSET, [2-(Trimethylammonium)ethyl] Methanethiosulfonate Bromide]
Wildtype ASIC1a; 300 µM MTSET at pH 7.4, before MTS 0.16 ± 0.05%, n = 3, p = 0.3
  % residual current after MTS: 0.31 ± 0.04%
Wildtype ASIC1a; 300 µM MTSET at pH 7.4, before MTS 1.8 ± 0.2 s, n = 3, p = 0.9
  τinact after MTS: 1.8 ± 0.2 s
Wildtype ASIC1a; 300 µM MTSET, before MTS 1.8 ± 0.7%, n = 3, p = 0.2
  steady-state desensitization, conditioning pH6.7/7.4 after MTS: 1.5 ± 0.6%
Wildtype ASIC1a; 300 µM MTSET, before MTS 66 ± 10%, n = 3, p = 0.7
  activation pH6.5/5.0 after MTS: 62 ± 3%
Human ASIC1a L280C [2]; L280C after MTSET modification, n = 8, p = 0.003 paired t-test
  run down of MTSET effect: decrease in residual current with repeated pH 5.0 applications: 17 ± 5%
Human ASIC1a L280C [2]; L280C after MTSET modification, n = 8, p = 0.01 paired t-test
  run down of MTSET effect: decrease in inactivation rate with repeated pH 5.0 applications: 31 ± 9%
Human ASIC1a L280C [2]; L280C after MTSET modification, n = 8, p = 0.02 paired t-test
  run down of MTSET effect: decrease in peak amplitude with repeated pH 5.0 applications: 5%
Human ASIC1a L280C [2]; L280C closed state, pH 6.8, 5.0 mM Ca2+ conditioning, 300 µM MTSET
  time until MTSET modification observed (increase in residual current): ≤ 2 min
Human ASIC1a L280C [2]; L280C desensitized state, pH 6.8, nominal Ca2+-free conditioning, 300 µM MTSET up to 6 minutes
  MTSET modification in the desensitized state: did not appreciably modify L280C
Human ASIC1a L280C [3]; 300 µM MTSET at pH 7.4 with vehicle
  time until MTSET modulation plateaued in presence of vehicle: 5 min

## FRRF [FRRF (no amide), peptide FRRF lacking the c-terminal amide, used as a control]
Human ASIC1a L280C [1]; 100 µM peptide 1 min at pH 7.4 before pH 5.0, current at 60 s normalized to peak, p = 2x10^-6 vs FRRFa
  residual current (Iresidual/Itransient): 5.6 ± 0.8%
Human ASIC1a L280C [3]; 100 µM peptide + 300 µM MTSET at pH 7.4
  effect of peptide on MTSET modification: did not interfere with MTSET modification

## FRRF-NH2 [FRRFamide peptide]
[4]
  EC50 of FRRFa modulation of the residual current of pH 5.0-evoked currents (two-electrode voltage clamp, Xenopus oocytes; responses normalised to 100 µM FRRFa): 20 µM
[5]
  EC50 of FRRFa modulation of the residual current of pH 5.0-evoked currents (two-electrode voltage clamp, Xenopus oocytes; responses normalised to 100 µM FRRFa): 14 µM
